Consider six compounds from ChEMBL document CHEMBL1148727, “Discovery of 1,4-dihydroxy-2-naphthoate [corrected] prenyltransferase inhibitors: new drug leads for multidrug-resistant gram-positive pathogens” (2007).

Common to all, as to format: functional
One assay deals with Proteus mirabilis. Put plainly: Antibacterial activity against Proteus mirabilis IFO3849 by agar plate dilution method.
Assay [1] has as its system Enterococcus faecalis. As to the kind of experiment: Antibacterial activity against vancomycin-resistant Enterococcus faecalis NCTC-12203 after 18 hrs by agar plate dilution method.
A further assay relates to Pseudomonas aeruginosa. As to the kind of experiment: Antibacterial activity against Pseudomonas aeruginosa 46001 by agar plate dilution method.
The subject of the next assay is Escherichia coli. Put plainly: Antibacterial activity against Escherichia coli NIHJ JC2 by agar plate dilution method.
Assay [2] relates to Enterococcus faecalis. Put plainly: Antibacterial activity against vancomycin-resistant Enterococcus faecalis NCTC-12201 after 18 hrs by agar plate dilution method.
A further assay has as its system Klebsiella pneumoniae. Put plainly: Antibacterial activity against Klebsiella pneumoniae NCTN9632 by agar plate dilution method.
Assay [3] concerns Staphylococcus aureus. As to the kind of experiment: Antibacterial activity against Staphylococcus aureus FDA209P after 18 hrs by agar plate dilution method.
Assay [4] deals with Mycolicibacterium smegmatis. As to the kind of experiment: Antibacterial activity against Mycobacterium smegmatis Takeo after 18 hrs by agar plate dilution method.
Assay [5] has as its system Mycobacterium intracellulare. As to the kind of experiment: Antibacterial activity against Mycobacterium intracellular ATCC 15984 after 18 hrs by agar plate dilution method. Particulars: ATCC 15984, 18 h.
The next assay concerns Mycolicibacterium aurum. Put plainly: Antibacterial activity against Mycobacterium aurum after 18 hrs by agar plate dilution method.
The test system of the next assay is Mycobacterium avium. Put plainly: Antibacterial activity against Mycobacterium avium Flamingo after 18 hrs by agar plate dilution method.
In assay [6] the test system is Mycolicibacterium fortuitum. Put plainly: Antibacterial activity against Mycobacterium fortuitum NIHJ1615 after 18 hrs by agar plate dilution method.
The subject of assay [7] is Staphylococcus aureus. As to the kind of experiment: Antibacterial activity against Staphylococcus aureus Smith after 18 hrs by agar plate dilution method.
Assay [8] concerns Mycobacterium tuberculosis. Put plainly: Antibacterial activity against Mycobacterium tuberculosis H37Rv after 18 hrs by agar plate dilution method.
For assay [9], the system named is Staphylococcus aureus. Put plainly: Antibacterial activity against methicillin-resistant Staphylococcus aureus Mu50 after 18 hrs by agar plate dilution method. Particulars: Mu50, 18 h.
The test system of assay [10] is Staphylococcus aureus. As to the kind of experiment: Antibacterial activity against methicillin-resistant Staphylococcus aureus 92-1191 after 18 hrs by agar plate dilution method.
For assay [11], the system named is Staphylococcus aureus. Put plainly: Antibacterial activity against vancomycin-resistant Staphylococcus aureus 70 after 18 hrs by agar plate dilution method.
In assay [12] the test system is Staphylococcus aureus. As to the kind of experiment: Antibacterial activity against Staphylococcus aureus macrolide-resistance after 18 hrs by agar plate dilution method.
Assay [13] concerns Staphylococcus aureus. As to the kind of experiment: Antibacterial activity against methicillin-resistant Staphylococcus aureus after 18 hrs by agar plate dilution method.
In assay [14] the test system is Staphylococcus aureus. Put plainly: Antibacterial activity against Linezolid and methicillin-resistant Staphylococcus aureus 06 after 18 hrs by agar plate dilution method.

Values after ≈ are worked out from the molar mass of the structure shown.

What is called MIC is the lowest concentration found to suppress growth. Higher therefore signals a need for much substance. For the compound `CN[C@H](CC(C)C)C(=O)N[C@H]1C(=O)N[C@@H](CC(N)=O)C(=O)N[C@H]2C(=O)N[C@H]3C(=O)N[C@H](C(=O)N[C@H](C(=O)O)c4cc(O)cc(O)c4-c4cc3ccc4O)[C@H](O)c3ccc(c(Cl)c3)Oc3cc2cc(c3O[C@@H]2O[C@H](CO)[C@@H](O)[C@H](O)[C@H]2O[C@H]2C[C@](C)(N)[C@H](O)[C@H](C)O2)Oc2ccc(cc2Cl)[C@H]1O` [VANCOMYCIN], the MIC in the assay with Proteus mirabilis, with Enterococcus faecalis [1], in the assay with Pseudomonas aeruginosa, in the assay with Escherichia coli, in the assay with Enterococcus faecalis [2] and with Klebsiella pneumoniae was > 128 µg/mL in each case.
As for `C=CCN(C)CCCCCCCCOc1ccc(C(=O)c2ccc(Cl)cc2)c(O)c1`, the MIC in the assay on Staphylococcus aureus [3] was > 12.5 µg/mL; in [4], 12.5 µg/mL (≈ 29.1 µM); in the assay with Enterococcus faecalis [1] it was > 12.5 µg/mL; in assay [5], 6.3 µg/mL (≈ 14.7 µM); in the assay on Mycolicibacterium aurum it was 6.3 µg/mL (≈ 14.7 µM); against Enterococcus faecalis [2], > 12.5 µg/mL. Also, the minimum inhibitory concentration (MIC) is 6.3 µg/mL (≈ 14.7 µM) in the assay with Mycobacterium avium; 12.5 µg/mL (≈ 29.1 µM) in assay [6]; > 12.5 µg/mL against Staphylococcus aureus [7]; 1.5 µg/mL (≈ 3.49 µM) in assay [8]; > 12.5 µg/mL against Staphylococcus aureus [9].
As to `CN(CCCOC/C=C/COc1ccc(C(=O)c2ccc(Cl)cc2)c(O)c1)CCc1ccc(F)cc1`, the minimal inhibitory concentration (MIC) in the assay with Proteus mirabilis was > 128 µg/mL; in the assay on Staphylococcus aureus [3] it was 4 µg/mL (≈ 7.81 µM); with Enterococcus faecalis [1], 2 µg/mL (≈ 3.91 µM); with Staphylococcus aureus [10] it was 4 µg/mL (≈ 7.81 µM); with Pseudomonas aeruginosa it was > 128 µg/mL; against Staphylococcus aureus [11] it was 4 µg/mL (≈ 7.81 µM). For the same compound, the minimal inhibitory concentration (MIC) against Staphylococcus aureus [12] is 4 µg/mL (≈ 7.81 µM); against Escherichia coli, > 128 µg/mL; in the assay on Enterococcus faecalis [2], 8 µg/mL (≈ 15.6 µM); in the assay with Klebsiella pneumoniae, > 128 µg/mL; with Staphylococcus aureus [13] it was 4 µg/mL (≈ 7.81 µM); in the assay on Staphylococcus aureus [7], 8 µg/mL (≈ 15.6 µM). The MIC with Staphylococcus aureus [14] was determined as 8 µg/mL (≈ 15.6 µM); in assay [8], 12.5 µg/mL (≈ 24.4 µM); against Staphylococcus aureus [9], 8 µg/mL (≈ 15.6 µM).
Consider `NNC(=O)c1ccncc1` [ISONIAZID], for which the minimum inhibitory concentration (MIC) in assay [4] is 12.5 µg/mL (≈ 91.1 µM); in assay [5] it was 12.5 µg/mL (≈ 91.1 µM); in the assay with Mycolicibacterium aurum, 6.3 µg/mL (≈ 45.9 µM); with Mycobacterium avium, > 25 µg/mL; in assay [6] it was 6.3 µg/mL (≈ 45.9 µM); in [8], 0.1 µg/mL (≈ 0.729 µM).
As to `CO[C@H]1/C=C/O[C@@]2(C)Oc3c(C)c(O)c4c(O)c(c(/C=N/N5CCN(C)CC5)c(O)c4c3C2=O)NC(=O)/C(C)=C\C=C\[C@H](C)[C@H](O)[C@@H](C)[C@@H](O)[C@@H](C)[C@H](OC(C)=O)[C@@H]1C` [RIFAMPIN], the MIC in assay [4] was > 25 µg/mL; in assay [5] it was 3.1 µg/mL (≈ 3.77 µM); in the assay on Mycolicibacterium aurum, 0.78 µg/mL (≈ 0.948 µM); in the assay on Mycobacterium avium it was 3.1 µg/mL (≈ 3.77 µM); in assay [6], > 25 µg/mL; in assay [8], 0.2 µg/mL (≈ 0.243 µM).
Turning to `CC(=O)NC[C@H]1CN(c2ccc(N3CCOCC3)c(F)c2)C(=O)O1` [LINEZOLID], the MIC against Proteus mirabilis is 128 µg/mL (≈ 379 µM); in the assay on Pseudomonas aeruginosa it was > 128 µg/mL; against Escherichia coli, 128 µg/mL (≈ 379 µM); against Klebsiella pneumoniae, > 128 µg/mL; in the assay on Staphylococcus aureus [14], 32 µg/mL (≈ 94.9 µM).
